{
  "source": "patent US20150274664A1",
  "about": "(MERCK SHARP & DOHME CORP., priority 2012, published 2015)",
  "key": {"[1]": {"molecular_target": "T1, human SNP variant (S309L) of GPR119 (Homo sapiens, UniProt Q8TDV5, S309L)", "T1 construct": "expressed in transfected cells; host or cells: HEK293 Flp-In (Invitrogen)", "T1 sequence (Q8TDV5 1-335 S309L)": "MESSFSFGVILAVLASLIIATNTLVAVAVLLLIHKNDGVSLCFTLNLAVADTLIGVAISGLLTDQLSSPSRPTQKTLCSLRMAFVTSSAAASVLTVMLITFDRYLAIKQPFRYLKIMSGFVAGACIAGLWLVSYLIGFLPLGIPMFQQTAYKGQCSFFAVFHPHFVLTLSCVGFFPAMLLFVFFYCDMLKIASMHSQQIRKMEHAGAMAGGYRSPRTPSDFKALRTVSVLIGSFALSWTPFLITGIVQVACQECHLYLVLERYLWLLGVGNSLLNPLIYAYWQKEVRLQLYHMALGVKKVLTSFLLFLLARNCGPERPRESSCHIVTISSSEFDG", "assay": "GPR119 signaling, cAMP homogenous time resolved fluorescence (HTRF) assay", "format": "cell-based", "conditions": "HEK293 Flp-In cells stably transfected with human GPR119 (S309L), HTRF kit", "source_text": "Measurement of GPR119 Signaling Using a Cyclic AMP (cAMP) Homogenous Time Resolved Fluorescence (HTRF) Assay\nChinese hamster ovary (CHO) cell lines stably transfected with the permissive guanine nucleotide binding protein alpha 15 (Gals) and murine GPR119 were maintained in DMEM media containing FBS, penicillin-streptomycin, puromycin, and G418 (geneticin). Alternatively, human embryonic kidney (HEK)293 Flp-In cells (Invitrogen, Carlsbad, Calif.) were stably transfected with a human SNP variant (S309L) of GPR119 and maintained in DMEM media containing FBS, penicillin-streptomycin, and hygromycin. Agonist activation of the GPR119 receptor was measured in receptor transfected cells described above, treated with compounds of this invention, using a commercial homogenous time resolved fluorescence (HTRF) kit for measurement of cAMP (CisBio, Bedford, Mass.). The assay was performed in 96-well half-volume plates (murine) or 384-well plates (human) following the manufacturers instructions. Briefly, suspended cells were incubated with a dose titration of test compound at RT for 60 min, lysed, and incubated with HTRF reagents for an additional 60 min. The plate was read using an Envision multilabel reader (Perkin Elmer) adjusted to read time resolved fluorescence and the cAMP concentrations were extrapolated from a cAMP calibration curve. […] The concentration of test compound required to stimulate a half-maximal response (EC50), and efficacy as compared to an internal agonist control, was determined from a sigmoidal 4-parameter curve fit of the resulting plot of normalized activity versus compound concentration."}, "human GPR119": {"molecular_target": "T2, human GPR119 (Homo sapiens, UniProt Q8TDV5)", "T2 construct": "expressed in transfected cells; host or cells: HEK293", "T2 sequence (Q8TDV5 1-335)": "T1 sequence (Q8TDV5 1-335 S309L) with L309S", "assay": "Measurement of GPR119 signaling using LANCE 384-well cAMP kit (LCMP assay)", "format": "cell-based", "conditions": "HEK293 cells stably transfected with human GPR119", "outline": "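HEK293 cells stably expressing human GPR119, in stimulation buffer at pH 7.4 with 100 μM phosphodiesterase inhibitors, exposed to a 10-point compound dilution (2.5% DMSO final) for 45 min. cAMP measured by LANCE TR-FRET at 665 nm against a cAMP standard curve, normalized between DMSO basal and an internal agonist maximum, with a 4-parameter fit.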"}},
  "note": "Changes are numbered by the printed parent chain.",
  "data": [
    {"smiles": "CS(=O)(=O)c1ccc(COC[C@H]2C[C@@H]2C2CCN(c3ncc(Cl)cn3)CC2)nc1", "note": "[Example 1, 5-chloro-2-(4-((1R,2S)-2-(((5-(methylsulfonyl)pyridin-2-yl)methoxy)methyl)cyclopropyl)piperidin-1-yl)pyrimidine]", "values": [
      {"measurement": "EC50", "setting": "[1]", "result": 3.8, "unit": "nM"}
    ]},
    {"smiles": "CS(=O)(=O)c1ccc(COC[C@H]2C[C@@H]2C2CCN(c3ncc(Cl)cn3)CC2)cc1", "note": "[Example 2, 5-chloro-2-(4-((1R,2S)-2-(((4-(methylsulfonyl)benzyl)oxy)methyl)cyclopropyl)piperidin-1-yl)pyrimidine]", "values": [
      {"measurement": "EC50", "setting": "[1]", "result": 1.2, "unit": "nM"}
    ]},
    {"smiles": "CCS(=O)(=O)c1ccc(COC[C@H]2C[C@@H]2C2CCN(c3ncc(Cl)cn3)CC2)cc1", "note": "[Example 3, 5-chloro-2-(4-((1R,2S)-2-(((4-(ethylsulfonyl)benzyl)oxy)methyl)cyclopropyl)piperidin-1-yl)pyrimidine]", "values": [
      {"measurement": "EC50", "setting": "[1]", "result": 0.73, "unit": "nM"}
    ]},
    {"smiles": "CS(=O)(=O)c1ccc(COC[C@H]2C[C@@H]2C2CCN(c3ncc(Cl)cn3)CC2)cc1F", "note": "[Example 5, 5-chloro-2-(4-((1R,2S)-2-(((3-fluoro-4-(methylsulfonyl)benzyl)oxy)methyl)cyclopropyl)piperidin-1-yl)pyrimidine]", "values": [
      {"measurement": "EC50", "setting": "[1]", "result": 1, "unit": "nM"}
    ]},
    {"smiles": "Cc1cnc(N2CCC([C@H]3C[C@@H]3COCc3ccc(S(C)(=O)=O)cc3)CC2)nc1", "note": "[Example 6, 5-methyl-2-(4-((1R,2S)-2-(((4-(methylsulfonyl)benzyl)oxy)methyl)cyclopropyl)piperidin-1-yl)pyrimidine]", "values": [
      {"measurement": "EC50", "setting": "[1]", "result": 7.1, "unit": "nM"}
    ]},
    {"smiles": "CCS(=O)(=O)c1ccc(COC[C@H]2C[C@@H]2C2CCN(c3ncc(C)cn3)CC2)cc1", "note": "[Example 7, 2-(4-((1R,2S)-2-(((4-(ethylsulfonyl)benzyl)oxy)methyl)cyclopropyl)piperidin-1-yl)-5-methylpyrimidine]", "values": [
      {"measurement": "EC50", "setting": "[1]", "result": 5.8, "unit": "nM"}
    ]},
    {"smiles": "CCc1cnc(N2CCC([C@H]3C[C@@H]3COCc3ccc(S(C)(=O)=O)cc3)CC2)nc1", "note": "[Example 10, 5-ethyl-2-(4-((1R,2S)-2-(((4-(methylsulfonyl)benzyl)oxy)methyl)cyclopropyl)piperidin-1-yl)pyrimidine]", "values": [
      {"measurement": "EC50", "setting": "[1]", "result": 1.9, "unit": "nM"}
    ]},
    {"smiles": "CC1(OC(=O)N2CCC([C@H]3C[C@@H]3CCOc3ccc(-n4cnnn4)c(F)c3)CC2)CC1", "note": "[Example 106, 1-methylcyclopropyl 4-((1R,2R)-2-(2-(3-fluoro-4-(1H-tetrazol-1-yl)phenoxy)ethyl)cyclopropyl)piperidine-1-carboxylate]", "values": [
      {"measurement": "EC50", "setting": "human GPR119", "result": 14, "unit": "nM"}
    ]},
    {"smiles": "CC1(OC(=O)N2CCC([C@H]3C[C@@H]3CCOc3ccc(-n4cnnn4)cc3F)CC2)CC1", "note": "[Example 107, 1-methylcyclopropyl 4-((1R,2R)-2-(2-(2-fluoro-4-(1H-tetrazol-1-yl)phenoxy)ethyl)cyclopropyl)piperidine-1-carboxylate]", "values": [
      {"measurement": "EC50", "setting": "human GPR119", "result": 17, "unit": "nM"}
    ]},
    {"smiles": "CC1(OC(=O)N2CCC([C@@H]3C[C@H]3CCOc3ccc(CC(=O)N4CCC4)cc3F)CC2)CC1", "note": "[Example 108, 1-methylcyclopropyl 4-((1S,2S)-2-(2-(4-(2-(azetidin-1-yl)-2-oxoethyl)-2-fluorophenoxy)ethyl)cyclopropyl)piperidine-1-carboxylate]", "values": [
      {"measurement": "EC50", "setting": "human GPR119", "result": 24, "unit": "nM"}
    ]},
    {"smiles": "CS(=O)(=O)c1ccc(OCC[C@H]2C[C@@H]2C2CCN(c3ncc(Cl)cn3)CC2)nc1", "note": "[Example 109, 5-chloro-2-(4-((1R,2R)-2-(2-(5-(methylsulfonyl)pyridin-2-yloxy)ethyl)cyclopropyl)piperidin-1-yl)pyrimidine]", "values": [
      {"measurement": "EC50", "setting": "human GPR119", "result": 22, "unit": "nM"}
    ]},
    {"smiles": "CC(C)c1noc(N2CCC([C@H]3C[C@@H]3CCOc3ccc(S(C)(=O)=O)cn3)CC2)n1", "note": "[Example 110, 3-isopropyl-5-(4-((1R,2R)-2-(2-(5-(methylsulfonyl)pyridin-2-yloxy)ethyl)cyclopropyl)piperidin-1-yl)-1,2,4-oxadiazole]", "values": [
      {"measurement": "EC50", "setting": "human GPR119", "result": 18, "unit": "nM"}
    ]},
    {"smiles": "CCS(=O)(=O)c1ccc(OCC[C@@H]2C[C@H]2C2CCN(c3nc(C(C)C)no3)CC2)nc1", "note": "[Example 111, 5-(4-((1S ,2S)-2-(2-((5-(ethylsulfonyl)pyridin-2-yl)oxy)ethyl)cyclopropyl)piperidin-1-yl)-3-isopropyl-1,2,4-oxadiazole]", "values": [
      {"measurement": "EC50", "setting": "human GPR119", "result": 17, "unit": "nM"}
    ]},
    {"smiles": "CCc1cnc(N2CCC([C@H]3C[C@@H]3CCOc3ccc(CC(=O)N4CCC4)cn3)CC2)nc1", "note": "[Example 115, 1-(azetidin-1-yl)-2-(6-(2-((1R,2R)-2-(1-(5-ethylpyrimidin-2-yl)piperidin-4-yl)cyclopropyl)ethoxy)pyridin-3-yl)ethanone]", "values": [
      {"measurement": "EC50", "setting": "human GPR119", "result": 10, "unit": "nM"}
    ]},
    {"smiles": "CCc1cnc(N2CCC([C@@H]3C[C@H]3CCOc3ccc(CC(=O)N4CCC4)cn3)CC2)nc1", "note": "[Example 116, 1-(azetidin-1-yl)-2-(6-(2-((1S,2S)-2-(1-(5-ethylpyrimidin-2-yl)piperidin-4-yl)cyclopropyl)ethoxy)pyridin-3-yl)ethanone]", "values": [
      {"measurement": "EC50", "setting": "human GPR119", "result": 9.7, "unit": "nM"}
    ]},
    {"smiles": "CCc1cnc(N2CCC([C@H]3C[C@@H]3CCOc3cc(F)cc(F)c3CC(=O)N(C)C)CC2)nc1", "note": "[Example 117, 2-(2-(2-((1R,2R)-2-(1-(5-ethylpyrimidin-2-yl)piperidin-4-yl)cyclopropyl)ethoxy)-4,6-difluorophenyl)-N,N-dimethylacetamide]", "values": [
      {"measurement": "EC50", "setting": "human GPR119", "result": 12, "unit": "nM"}
    ]},
    {"smiles": "CCc1cnc(N2CCC([C@@H]3C[C@H]3CCOc3cc(F)cc(F)c3CC(=O)N3CCC3)CC2)nc1", "note": "[Example 118, 1-(azetidin-1-yl)-2-(2-(2-((1S,2S)-2-(1-(5-ethylpyrimidin-2-yl)piperidin-4-yl)cyclopropyl)ethoxy)-4,6-difluorophenyl)ethanone]", "values": [
      {"measurement": "EC50", "setting": "human GPR119", "result": 17, "unit": "nM"}
    ]},
    {"smiles": "CCc1cnc(N2CCC([C@H]3C[C@@H]3CCOc3cc(F)cc(F)c3CC(=O)N3CCC3)CC2)nc1", "note": "[Example 119, 1-(azetidin-1-yl)-2-(2-(2-((1R,2R)-2-(1-(5-ethylpyrimidin-2-yl)piperidin-4-yl)cyclopropyl)ethoxy)-4,6-difluorophenyl)ethanone]", "values": [
      {"measurement": "EC50", "setting": "human GPR119", "result": 17, "unit": "nM"}
    ]},
    {"smiles": "CC1(OC(=O)N2CCC([C@@H]3C[C@H]3CCOc3ccc(CC(=O)N4CCC4)cn3)CC2)CC1", "note": "[Example 120, 1-methylcyclopropyl 4-((1S,2S)-2-(2-(5-(2-(azetidin-1-yl)-2-oxoethyl)pyridin-2-yloxy)ethyl)cyclopropyl)piperidine-1-carboxylate]", "values": [
      {"measurement": "EC50", "setting": "human GPR119", "result": 21, "unit": "nM"}
    ]},
    {"smiles": "CC(C)c1noc(N2CCC([C@@H]3C[C@H]3CCOc3ccc(CC(=O)N4CCC4)cn3)CC2)n1", "note": "[Example 121, 1-(azetidin-1-yl)-2-(6-(2-((1S,2S)-2-(1-(3-isopropyl-1,2,4-oxadiazol-5-yl)piperidin-4-yl)cyclopropyl)ethoxy)pyridin-3-yl)ethanone]", "values": [
      {"measurement": "EC50", "setting": "human GPR119", "result": 24, "unit": "nM"}
    ]},
    {"smiles": "CC(C)c1noc(N2CCC([C@H]3C[C@@H]3CCOc3cc(F)cc(F)c3CC(=O)N(C)C)CC2)n1", "note": "[Example 122, 2-(2,4-difluoro-6-(2-((1R,2R)-2-(1-(3-isopropyl-1,2,4-oxadiazol-5-yl)piperidin-4-yl)cyclopropyl)ethoxy)phenyl)-N,N-dimethylacetamide]", "values": [
      {"measurement": "EC50", "setting": "human GPR119", "result": 20, "unit": "nM"}
    ]},
    {"smiles": "Clc1cnc(N2CCC([C@H]3C[C@@H]3CCNc3ncc(-n4cnnn4)cn3)CC2)nc1", "note": "[Example 123, N-(2-((1R,2S)-2-(1-(5-chloropyrimidin-2-yl)piperidin-4-yl)cyclopropyl)ethyl)-5-(1H-tetrazol-1-yl)pyrimidin-2-amine]", "values": [
      {"measurement": "EC50", "setting": "human GPR119", "result": 10, "unit": "nM"}
    ]},
    {"smiles": "CCc1cnc(N2CCC([C@H]3C[C@@H]3CCNc3ncc(-n4cnnn4)cn3)CC2)nc1", "note": "[Example 125, N-(2-((1R,2S)-2-(1-(5-ethylpyrimidin-2-yl)piperidin-4-yl)cyclopropyl)ethyl)-5-(1H-tetrazol-1-yl)pyrimidin-2-amine]", "values": [
      {"measurement": "EC50", "setting": "human GPR119", "result": 18, "unit": "nM"}
    ]},
    {"smiles": "CC(C)c1noc(N2CCC([C@@H]3C[C@H]3CCNc3ncc(-n4cnnn4)cn3)CC2)n1", "note": "[Example 126, N-(2-((1S,2R)-2-(1-(3-isopropyl-1,2,4-oxadiazol-5-yl)piperidin-4-yl)cyclopropyl)ethyl)-5-(1H-tetrazol-1-yl)pyrimidin-2-amine]", "values": [
      {"measurement": "EC50", "setting": "human GPR119", "result": 16, "unit": "nM"}
    ]}
  ]
}
